Among the data in publication PMC10854695, “Using Flavonoid Substitution Status to Predict Anticancer Effects in Human Melanoma Cancers: An In Vitro Study” (Cancers, 2024) are IC50 values, retold here.

A value given as a limit tells only on which side of the number the result lay.

The test system of data set [1] is C32 melanoma cells. Briefly: MTT cell viability assay, C32.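 Note: MTT added for 2 h, cells lysed in DMSO, absorbance read at 570 nm, compound vehicle kept at or below 0.1% DMSO.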 The following applies: Homo sapiens, read-out: IC50, cytotoxic activity, MTT test. In general terms: Tetrazolium assays rely on reduction of a dye to a coloured formazan, in cell work by metabolically active cells.
Data set [2] deals with A375 melanoma cells. The experiment in a line: Neutral red uptake (NRU) assay, A375. Conditions: Homo sapiens, read-out: IC50, cytotoxic activity, NRU assay.
The subject of data set [3] is A375 melanoma cells. The experiment in a line: MTT cell viability assay, A375.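 Note: Read-out is formazan absorbance at 570 nm after 2 h with MTT, with compounds in at most 0.1% v/v DMSO.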 Conditions: Homo sapiens.
Method: (§1) The MTT colorimetric assay was performed as a preliminary evaluation of the cytotoxicity of the selected flavonoids according to the method described and validated by Strawa et al. [21]. Briefly, melanoma cells and fibroblasts were seeded in 96-well microplates at a density of 1 × 10^4 cells per well. Fibroblasts were used as a control cell line in order to assess the selectivity of the compounds. […] Subsequently, the cells were washed with PBS, incubated with MTT solution for 2 h, and lysed with dimethyl sulfoxide (DMSO) supplemented with 1% (v/v) Sorensen’s glycine buffer. The absorbance was measured using a microplate reader (EPOCH 2, BioTek, Winooski, VT, USA) at a wavelength of 570 nm. The compounds were used at a final DMSO concentration of no more than 0.1% (v/v) in each well. The results were generated from at least three independent experiments. […] The IC50 values were calculated with GraphPad Prism 9 software (GraphPad Software, San Diego, CA, USA).
Data set [4] deals with C32 melanoma cells. Briefly: Neutral red uptake (NRU) assay, C32. Conditions: Homo sapiens.
The nature of data set [5]: Neutral red uptake (NRU) assay, normal cells. The following applies: human.
Method: The NRU (neutral red uptake) was conducted as previously described by Szoka and co-workers, with some modifications [22]. Briefly, melanoma cells and fibroblasts were seeded in microplates at the density of 1 × 10^4 cells per well and allowed to adhere for 24 h. […] After treatment, the culture medium was replaced with a neutral red solution (40 µg/mL). An additional 2 h of incubation was performed. The neutral red solution was then removed and the neutral red accumulated in the cells was dissolved in 50% EtOH with 1% of the glacial acetic acid. The absorbance was estimated at 540 nm and IC50 values were calculated using GraphPad Prism software (GraphPad Software, San Diego, CA, USA).
The nature of data set [6]: in vitro. The following applies: human.
Method: as §1
Data set [7] in a line: MTT cell viability assay, normal cells.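 Note: fibroblasts served as non-cancer comparison line for selectivity versus melanoma cells, MTT reduction read as absorbance at 570 nm after 2 h dye exposure, compounds in ≤0.1% DMSO.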 Conditions: human.
Method: as §1
[8] abbreviates: A-375, 24 h, read-out: IC50, cytotoxic activity, MTT test, A375, 24 h.
The mark [9] stands for this setting: A-375, 48 h, read-out: IC50, cytotoxic activity, MTT test, A375, 48 h.
The mark [10] stands for this setting: A-375, 72 h, read-out: IC50, cytotoxic activity, MTT test, A375, 72 h.
The mark [11] stands for this setting: C32, 24 h, read-out: IC50, cytotoxic activity, NRU assay, C32, 24 h.
[12] abbreviates: C32, 48 h, read-out: IC50, cytotoxic activity, NRU assay, C32, 48 h.
[13] abbreviates: C32, 72 h, read-out: IC50, cytotoxic activity, NRU assay, C32, 72 h.
Setting [14] is: human skin fibroblasts (CCD25Sk).

For the compound `O=C(O)C1OC(Oc2cc(O)c3c(=O)cc(-c4ccc(O)c(O)c4)oc3c2)C(O)C(O)C1O` (stereo not drawn) [Compound 8, luteolin 7-O-glucuronide], the IC50 (as a rule, the midpoint of a concentration-inhibition curve) was greater than 200 µM in data set [1] (C32, 24 h); greater than 200 µM in data set [1] (C32, 48 h); greater than 200 µM in data set [1] (C32, 72 h); greater than 200 µM in data set [2] (A-375, 24 h); greater than 200 µM in data set [2] (A-375, 48 h); greater than 200 µM in data set [2] (A-375, 72 h). In addition, the IC50 in data set [3] (setting [8]), in data set [3] (setting [9]), in data set [3] (setting [10]), in data set [4] (setting [11]), in data set [4] (setting [12]) and in data set [4] (setting [13]) was greater than 200 µM in each case. Further, the IC50 at 24 h in data set [5] (setting [14]) and in data set [6] was greater than 200 µM throughout. Further, the IC50 at 48 h in data set [5] (setting [14]) and in data set [6] was greater than 200 µM in each case. For the same compound, the IC50 at 72 h in data set [5] (setting [14]) and in data set [6] was greater than 200 µM throughout.

In the case of `O=c1cc(-c2ccccc2)oc2cc(O)cc(O)c12` [Compound 14, chrysin], the IC50 is 100 to 200 µM in data set [1] (C32, 24 h); 96.4 ± 7 µM in data set [1] (C32, 48 h); 58.9 ± 4.5 µM in data set [1] (C32, 72 h); 52.4 ± 3.5 µM in data set [2] (A-375, 24 h); 34.5 ± 2.3 µM in data set [2] (A-375, 48 h); 33.1 ± 2.8 µM in data set [2] (A-375, 72 h). Further, the half-maximal inhibitory concentration (IC50) in data set [3] (setting [8]) is 100 to 200 µM; in data set [3] (setting [9]), 66.4 ± 4.5 µM; in data set [3] (setting [10]) it was 34.4 ± 2.8 µM; in data set [4] (setting [11]) it was 89.2 ± 7.8 µM; in data set [4] (setting [12]), 44.7 ± 3.9 µM; in data set [4] (setting [13]) it was 25.6 ± 2.4 µM. Further, the IC50 at 24 h was 100 to 200 µM in data set [5] (setting [14]) and greater than 200 µM in data set [6]. Moreover, the IC50 at 48 h is 65.7 ± 4.2 µM in data set [5] (setting [14]) and greater than 200 µM in data set [6]. Further, the IC50 at 72 h was found to be 76.3 ± 4.7 µM in data set [5] (setting [14]) and 71.2 ± 4.5 µM in data set [6].

Take `COc1ccc(-c2oc3c(CC=C(C)C)c(O[C@@H]4O[C@H](CO)[C@@H](O)[C@H](O)[C@H]4O)cc(O)c3c(=O)c2O[C@@H]2O[C@@H](C)[C@H](O)[C@@H](O)[C@H]2O)cc1` [Compound 23, icariin]: the IC50 is greater than 200 µM in data set [1] (C32, 24 h); greater than 200 µM in data set [1] (C32, 48 h); greater than 200 µM in data set [1] (C32, 72 h); greater than 200 µM in data set [2] (A-375, 24 h); greater than 200 µM in data set [2] (A-375, 48 h); greater than 200 µM in data set [2] (A-375, 72 h). Besides, the IC50 in data set [3] (setting [8]), in data set [3] (setting [9]), in data set [3] (setting [10]), in data set [4] (setting [11]), in data set [4] (setting [12]) and in data set [4] (setting [13]) was greater than 200 µM in each case. In addition, the IC50 at 24 h in data set [5] (setting [14]) and in data set [6] was greater than 200 µM throughout. In addition, the IC50 at 48 h in data set [5] (setting [14]) and in data set [6] was greater than 200 µM each time. Also, the IC50 at 72 h in data set [5] (setting [14]) and in data set [6] was greater than 200 µM each time.

Take `COc1cc(-c2oc3cc(O)cc(O)c3c(=O)c2O)ccc1O` [Compound 26, 3′-methoxyquercetin]: the IC50 was greater than 200 µM in data set [1] (C32, 24 h); 100 to 200 µM in data set [1] (C32, 48 h); 49.3 ± 3.6 µM in data set [1] (C32, 72 h); greater than 200 µM in data set [2] (A-375, 24 h); 100 to 200 µM in data set [2] (A-375, 48 h); 78.1 ± 6.5 µM in data set [2] (A-375, 72 h). In addition, the IC50 in data set [3] (A-375, 24 h, read-out: IC50, cytotoxic activity, MTT test) is 86.3 ± 5.9 µM; in data set [3] (A-375, 48 h, read-out: IC50, cytotoxic activity, MTT test), 68.5 ± 3.9 µM; in data set [3] (A-375, 72 h, read-out: IC50, cytotoxic activity, MTT test) it was 50.8 ± 4 µM; in data set [4] (C32, 24 h, read-out: IC50, cytotoxic activity, NRU assay), greater than 200 µM; in data set [4] (C32, 48 h, read-out: IC50, cytotoxic activity, NRU assay), 100 to 200 µM; in data set [4] (C32, 72 h, read-out: IC50, cytotoxic activity, NRU assay), 65.1 ± 4 µM. For the same compound, the IC50 at 24 h in data set [5] was greater than 200 µM; in data set [7] it was 100 to 200 µM. The figures for the IC50 at 48 h in data set [5] and in data set [7] were 78.7 ± 5.5 µM and 68.5 ± 5.4 µM, respectively. Further, the IC50 at 72 h in data set [5] was found to be 69.2 ± 4.6 µM; in data set [7], 46.2 ± 3.3 µM.

For the compound `O=c1c(O)c(-c2ccc(O)c(O)c2)oc2cc(O)cc(O)c12` [Compound 24, quercetin], the IC50 in data set [1] (C32, 24 h) was greater than 200 µM; in data set [1] (C32, 48 h) it was greater than 200 µM; in data set [1] (C32, 72 h), 68.1 ± 4.6 µM; in data set [2] (A-375, 24 h), 100 to 200 µM; in data set [2] (A-375, 48 h), 84.7 ± 6.5 µM; in data set [2] (A-375, 72 h), 79.2 ± 7.3 µM. Further, the IC50 in data set [3] (setting [8]) was greater than 200 µM; in data set [3] (setting [9]), greater than 200 µM; in data set [3] (setting [10]), 74.4 ± 5 µM; in data set [4] (setting [11]), greater than 200 µM; in data set [4] (setting [12]), 58 ± 3.5 µM; in data set [4] (setting [13]), 47.5 ± 4.3 µM. Further, the IC50 at 24 h in data set [5] (setting [14]) and in data set [7] (setting [14]) was greater than 200 µM in each case. For the same compound, the IC50 at 48 h is 92.6 ± 4.2 µM in data set [5] (setting [14]) and greater than 200 µM in data set [7] (setting [14]). Further, the IC50 at 72 h came out at 36.4 ± 0.23 µM in data set [5] (setting [14]) and 36.1 ± 2 µM in data set [7] (setting [14]).
